Literature values, collected in patent US11000479B2, “Injectable long-acting naltrexone microparticle compositions” (Chong Kun Dang Pharmaceutical Corp., priority 2018, dated 2021).

Legend:
[1] = test system: heroin/diamorphine effects
[2] = test system: morphine induced analgesia; conditions: rat model, hot-plate test

For `O=C1CC[C@@]2(O)[C@H]3Cc4ccc(O)c5c4[C@@]2(CCN3CC2CC2)[C@H]1O5` [naltrexone], the “naltrexone level that completely antagonized heroin” value ([1]; 25 mg of heroin (Verebey et al. 1976)) is listed as 2.4 ng/mL, the “levels targeted as sufficient to offer protection from fatal opioid overdose” value ([1]; Hulse et al. 2005, Comer et al. 2002) is listed as 1 to 2 ng/mL and the “serum naltrexone level sufficient to block pure diamorphine” value ([1]; doses as high as 500 mg diamorphine, two patients (Brewer 2002)) is listed as 2.8 ng/mL. The “plasma naltrexone concentration shown to be effective” value [2] was 1 to 2 ng/mL.
